Measured values published in EP3861981B1, “NOVEL SERTACONAZOLE COMPOSITIONS” (Dr. Pfleger Arzneimittel GmbH, priority 2020, dated 2021).

Assays:
Type in all cases: physicochemical
[1] = Example 2: solubility of sertaconazole nitrate in solubilizers, macroscopic
Description: Mixtures of 2 wt.-% sertaconazole nitrate and 98 wt.-% of solubilizers were prepared and shaken for 24 h at 150 rpm and at room temperature. Subsequently, the samples were macroscopically examined by evaluating the amount and appearance of the sediment.

[2] = Example 3: solubility of sertaconazole nitrate in mixtures of solvent and solubilizer
Description: Mixtures of 2 wt.-% sertaconazole nitrate and 98 wt.-% of a mixture of solvent and solubilizers (the amount of solubilizer with respect to the total mixture of sertaconazole nitrate, solvent and solubilizer is indicated in the subsequent table) were prepared and shaken for 24 h at 150 rpm and at room temperature. Subsequently, the samples were macroscopically examined by evaluating the amount and appearance of the sediment.

[3] = Example 1: solubility of sertaconazole nitrate in solvents, macroscopic
Description: Mixtures of 2 wt.-% sertaconazole nitrate and 98 wt.-% of solvents were prepared and shaken for 24 h at 150 rpm and at room temperature. Subsequently, the samples were macroscopically examined by evaluating the amount and appearance of the sediment.

Clc1ccc(C(Cn2ccnc2)OCc2csc3c(Cl)cccc23)c(Cl)c1 (centres unmarked) [sertaconazole nitrate]
solubility ([1]; 2 wt.-% in 98 wt.-% solubilizer, 24 h, room temperature, trend from dimethylphthalate to macrogol 400): Increasing from dimethylphthalate to macrogol 400 | appearance ([1]; Dimethylphthalate): Milky mixture with sediment | appearance ([1]; Glycerine (cell below, Marcogol 300, empty, possibly merged)): Clear solution with sediment | appearance ([1]; Polyglycol M350 (cells below, propylene glycol, transcutol, macrogol 400, empty, possibly merged)): Dissolved | amount and appearance of the sediment ([2]; Butyl acetate + Macrogol 400 10-30 wt.-%): Sediment, no change observed by increasing amount of macrogol 400 | amount and appearance of the sediment ([2]; Butyl acetate + Polyglycol M350 10-30 wt.-%): White powdery sediment, no change observed by increas-ing amount of polyglycol M350 | amount and appearance of the sediment ([2]; Butyl acetate + Propylene glycol 10-30 wt.-%): Clear decrease of sediment with increase of propylene gly-col | amount and appearance of the sediment ([2]; Butyl acetate + Transcutol 10-30 wt.-%): Sediment, no change observed by increasing amount of transcutol | amount and appearance of the sediment ([2]; Butyl acetate + Water 10-30 wt.-%): Sediment (partially powdery white), increase of sediment with increasing amount of water | amount and appearance of the sediment ([2]; Ethanol + Dimethylphthalate 10-30 wt.-%): Sediment (slightly crystalline), minimal decrease of sedi-ment with increasing of amount of dimethylphthalate | amount and appearance of the sediment ([2]; Ethanol + Macrogol 400 10 wt.-%): Minimal crystal-line sediment | amount and appearance of the sediment ([2]; Ethanol + Macrogol 400 20 wt.-%): clear | amount and appearance of the sediment ([2]; Ethanol + Macrogol 400 30 wt.-%): clear | amount and appearance of the sediment ([2]; Ethanol + Polyglycol M350 10 wt.-%): Minimal crystal-line sediment | amount and appearance of the sediment ([2]; Ethanol + Polyglycol M350 20 wt.-%): clear | amount and appearance of the sediment ([2]; Ethanol + Polyglycol M350 30 wt.-%): clear | amount and appearance of the sediment ([2]; Ethanol + Propylene glycol 10-30 wt.-%): Minimal crystalline sediment, decrease of sediment with increase of amount of propylene glycol | amount and appearance of the sediment ([2]; Ethanol + Transcutol 10-30 wt.-%): Minimal crystalline sediment, decrease of sediment with increase of amount of transcutol | amount and appearance of the sediment ([2]; Ethanol + Water 10-30 wt.-%): Sediment (powdery/crystalline), no change observed by in-creasing amount of water | amount and appearance of the sediment ([2]; Ethyl acetate + Dimethylphthalate 10-30 wt.-%): Crystalline sediment, better solubility than pure ethyl ace-tate | amount and appearance of the sediment ([2]; Ethyl acetate + Macrogol 400 10-30 wt.-%): Crystalline sediment, minimal decrease of sediment with increase of amount of macrogol 400 | amount and appearance of the sediment ([2]; Ethyl acetate + Polyglycol M350 10-30 wt.-%): White, powdery sediment, no change observed by in-crease of amount of polyglycol M350 | amount and appearance of the sediment ([2]; Ethyl acetate + Propylene glycol 10-20 wt.-%): Decrease of crystalline sediment with increase of amount of propylene gly-col | amount and appearance of the sediment ([2]; Ethyl acetate + Propylene glycol 30 wt.-%): Clear | amount and appearance of the sediment ([2]; Ethyl acetate + Transcutol 10-30 wt.-%): Powdery/crystalline sediment, no change observed by in-crease of amount of transcutol | amount and appearance of the sediment ([2]; Ethyl acetate + Water 10-30 wt.-%): Sediment (partially powdery white), increase of sediment with increasing amount of water | amount and appearance of the sediment ([2]; Isopropanol + Macrogol 400 10-30 wt.-%): Crystalline sediment, no change observed by increasing amount of macrogol 400 | amount and appearance of the sediment ([2]; Isopropanol + Polyglycol M350 10-30 wt.-%): White sediment, clear decrease of sediment with increas-ing amount of polyglycol M350 | amount and appearance of the sediment ([2]; Isopropanol + Propylene glycol 10-30 wt.-%): Crystalline sediment, no change observed by increasing amount of propylene glycol | amount and appearance of the sediment ([2]; Isopropanol + Transcutol 10-30 wt.-%): Crystalline sediment, no change observed by increasing amount of transcutol | amount and appearance of the sediment ([2]; Isopropanol + Water 10-30 wt.-%): White powdery sediment, no change observed by increas-ing amount of water | solubility ([3]; 2 wt.-% in 98 wt.-% solvent, 24 h, room temperature, trend over water, butyl acetate, ethyl acetate, isopropanol, ethanol): Increasing from water to ethanol | appearance ([3]; Ethanol): Low, crystalline sediment | appearance ([3]; Water): Not dissolved, powdery, white sediment | sediment ([3]; trend over water, butyl acetate, ethyl acetate, isopropanol, ethanol): Decreasing from water to etanol
